SMILES strings stand for the structures. Bounds are passed on as bounds.

In the assay the target is T1, human plasma protein factor Xa (Homo sapiens, UniProt P00742).
T1 construct: measure proteolytic activity of the enzyme (factor Xa); purchased Haematologic Technologies (Essex Junction, Vt.); host or cells: human plasma
T1 sequence (P00742 235-488 limits assumed): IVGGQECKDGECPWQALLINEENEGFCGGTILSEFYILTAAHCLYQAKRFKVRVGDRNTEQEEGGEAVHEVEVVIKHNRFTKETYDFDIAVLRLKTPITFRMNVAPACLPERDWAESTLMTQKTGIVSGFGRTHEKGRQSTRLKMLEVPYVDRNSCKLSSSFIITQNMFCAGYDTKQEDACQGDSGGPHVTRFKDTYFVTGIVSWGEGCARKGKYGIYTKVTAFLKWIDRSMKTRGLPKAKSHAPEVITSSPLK
T1 sequence (P00742 41-179 partner limits assumed): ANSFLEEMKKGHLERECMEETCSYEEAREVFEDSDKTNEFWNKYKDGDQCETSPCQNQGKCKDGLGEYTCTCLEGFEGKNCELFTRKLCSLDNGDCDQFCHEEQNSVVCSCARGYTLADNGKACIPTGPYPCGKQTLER
In words: Factor Xa IC50 determination: cleavage of paranitroanilide substrate S-2765 in 96-well plates. The format is biochemical. Conditions: fXa 1 nM, S-2765 100 μM, Tris buffered saline pH 7.4, room temperature. The procedure, abridged:
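Initial rates of S-2765 (100 μM final) cleavage, read at 405 nm for 2 min, fitted with a four-parameter equation to give IC50. Enzyme: 1 nM human plasma fXa, 5 min room-temperature preincubation with inhibitor (0.01 nM–10 μM) in 20 mM Tris, 150 mM NaCl, 5 mM CaCl2, 0.1% BSA, 5% DMSO, pH 7.4; duplicates.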
By IC50 is commonly meant the concentration needed to halve the response being measured. A low value points to greater potency. In turn, `O=C(NCc1cn(-c2ccc(N3CCOCC3)nc2)nn1)c1ccc(Cl)s1` [Example 386, 5-Chloro-N-((1-(6-morpholinopyridin-3-yl)-1H-1,2,3-triazol-4-yl)methyl)thiophene-2-carboxamide] had an IC50 of 100 to 500 nM.

On to `O=C(NCc1cn(-c2ccc(N3CCOCC3=O)nc2)nn1)c1ccc(Cl)s1` [Example 387, 5-Chloro-N-((1-(6-(3-oxomorpholino)pyridin-3-yl)-1H-1,2,3-triazol-4-yl)methyl)thiophene-2-carboxamide], for which the half-maximal inhibitory concentration (IC50) was not above 100 nM.

`O=C(NCc1cn(-c2ccc(N3CCCCC3=O)nc2)nn1)c1ccc(Cl)s1` [Example 388, 5-Chloro-N-((1-(6-(2-oxopiperidin-1-yl)pyridin-3-yl)-1H-1,2,3-triazol-4-yl)methyl)thiophene-2-carboxamide] had an IC50 not above 100 nM.

In the case of `O=C(NCc1cn(-c2ccc(-n3ccccc3=O)nc2)nn1)c1ccc(Cl)s1` [Example 389, 5-Chloro-N-((1-(6-(2-oxopyridin-1(2H)-yl)pyridin-3-yl)-1H-1,2,3-triazol-4-yl)methyl)thiophene-2-carboxamide], the IC50 is not above 100 nM.

In turn, `O=C(NCc1cn(-c2ccc(N3CCNCC3)nc2)nn1)c1ccc(Cl)s1` [Example 390, 5-Chloro-N-((1-(6-(piperazin-1-yl)pyridin-3-yl)-1H-1,2,3-triazol-4-yl)methyl)thiophene-2-carboxamide] yielded a concentration for half-maximal inhibition (IC50) of 100 to 500 nM.

`CN1CCN(c2ccc(-n3cc(CNC(=O)c4ccc(Cl)s4)nn3)cn2)CC1` [Example 391, 5-Chloro-N-((1-(6-(4-methylpiperazin-1-yl)pyridin-3-yl)-1H-1,2,3-triazol-4-yl)methyl)thiophene-2-carboxamide] returned an IC50 of 100 to 500 nM.

Compound `O=C(NCc1cn(-c2ccc(N3CCCCC3)nc2)nn1)c1ccc(Cl)s1` [Example 392, 5-Chloro-N-((1-(6-(piperidin-1-yl)pyridin-3-yl)-1H-1,2,3-triazol-4-yl)methyl)thiophene-2-carboxamide] gave an IC50 of 100 to 500 nM.

`O=C(NCC1CC(c2ccc(Nc3ccnc4c(C(F)(F)F)cccc34)cc2)=NO1)c1ccc(Cl)s1` (stereo not drawn) [Example 393, 5-Chloro-N-((3-(4-(8-(trifluoromethyl)quinolin-4-ylamino)phenyl)-4,5-dihydroisoxazol-5-yl)methyl)thiophene-2-carboxamide]: the half-inhibitory concentration (IC50) was not below 500 nM.

`O=C(NCC1CC(c2ccc(Nc3ccnc4cc(C(F)(F)F)ccc34)cc2)=NO1)c1ccc(Cl)s1` (stereo not drawn) [Example 394, 5-Chloro-N-((3-(4-(7-(trifluoromethyl)quinolin-4-ylamino)phenyl)-4,5-dihydroisoxazol-5-yl)methyl)thiophene-2-carboxamide]: the IC50 is not above 100 nM.

Take `O=C(NCC1CC(c2ccc(Nc3ccnc4ccc(C(F)(F)F)cc34)cc2)=NO1)c1ccc(Cl)s1` (stereo not drawn) [Example 395, 5-Chloro-N-((3-(4-(6-(trifluoromethyl)quinolin-4-ylamino)phenyl)-4,5-dihydroisoxazol-5-yl)methyl)thiophene-2-carboxamide]: the IC50 was not above 100 nM.

`O=C(NCC1CC(c2ccc(Nc3ccc4ncccc4c3)cc2)=NO1)c1ccc(Cl)s1` (stereo not drawn) [Example 396, 5-Chloro-N-((3-(4-(quinolin-6-ylamino)phenyl)-4,5-dihydroisoxazol-5-yl)methyl)thiophene-2-carboxamide] registered an IC50 not below 500 nM.

`O=C(NCC1CC(c2ccc(C(=O)N3CC=CC3)cc2)=NO1)c1ccc(Cl)s1` (stereo not drawn) [Example 397, 5-Chloro-N-((3-(4-(2,5-dihydro-1H-pyrrole-1-carbonyl)phenyl)-4,5-dihydroisoxazol-5-yl)methyl)thiophene-2-carboxamide] displayed an IC50 not above 100 nM.

`COC[C@H]1CCCN1C(=O)c1ccc(C2=NOC(CNC(=O)c3ccc(Cl)s3)C2)cc1` (stereo partly drawn) [Example 398] yielded an IC50 of 100 to 500 nM.

Compound `CC(O)CNC(=O)c1ccc(C2=NOC(CNC(=O)c3ccc(Cl)s3)C2)cc1` (stereo not drawn) [Example 399, N-((3-(4-((2-Hydroxypropyl)carbamoyl)phenyl)-4,5-dihydroisoxazol-5-yl)methyl)-5-chlorothiophene-2-carboxamide] yielded an IC50 not below 500 nM.

On to `Cc1cnccc1Nc1ccc(C2=NOC(CNC(=O)c3ccc(Cl)s3)C2)cc1` (stereo not drawn) [Example 400, 5-Chloro-N-((3-(4-(3-methylpyridin-4-ylamino)phenyl)-4,5-dihydroisoxazol-5-yl)methyl)thiophene-2-carboxamide], for which the IC50 is not above 100 nM.

`CCOc1cc(Nc2ccc(C3=NOC(CNC(=O)c4ccc(Cl)s4)C3)cc2)ccn1` (stereo not drawn) [Example 401, 5-Chloro-N-((3-(4-(2-ethoxypyridin-4-ylamino)phenyl)-4,5-dihydroisoxazol-5-yl)methyl)thiophene-2-carboxamide] returned a half-maximal inhibitory concentration (IC50) not above 100 nM.

On to `O=C(NCC1CC(c2ccc(Nc3c(Cl)cncc3Cl)cc2)=NO1)c1ccc(Cl)s1` (stereo not drawn) [Example 402, 5-Chloro-N-((3-(4-(3,5-dichloropyridin-4-ylamino)phenyl)-4,5-dihydroisoxazol-5-yl)methyl)thiophene-2-carboxamide], for which the IC50 was not below 500 nM.

As to `O=C(NCC1CC(c2ccc(Nc3ccncc3C(F)(F)F)cc2)=NO1)c1ccc(Cl)s1` (stereo not drawn) [Example 403, 5-Chloro-N-((3-(4-(3-(trifluoromethyl)pyridin-4-ylamino)phenyl)-4,5-dihydroisoxazol-5-yl)methyl)thiophene-2-carboxamide], the half-maximal inhibitory concentration (IC50) was not above 100 nM.
